The NIST ThermoML archive (doi:10.1021/je8002095)

Key:
[1] = refractive index (Na D-line) (dimensionless); settings: 101.33 kPa, Liquid
[2] = molar heat capacity at constant pressure; settings: 101.33 kPa, Liquid, differential scanning calorimeter
[3] = for kinematic viscosity / mass density / speed of sound: 101.33 kPa, Liquid

CCCCCCCC[n+]1cccc(C)c1.F[B-](F)(F)F [N-octyl-3-methylpyridinium tetrafluoroborate]
Settings | kinematic viscosity, [3] [m2/s] | mass density, [3] [kg/m3] | molar heat capacity at constant pressure, [2] [J/K/mol] | refractive index, [1] | speed of sound, [3] [m/s] | surface tension liquid-gas, [3] [mN/m]
278.15 K | 0.00248 | 1106.4 | 433.8 | – | 1571.9 | 39.82
280.65 K | 0.00193 | 1105 | 435.7 | – | 1564.9 | 39.28
283.15 K | 0.00154 | 1103.6 | 437.4 | 1.45978 | 1557.7 | 38.7
285.65 K | 0.00123 | 1102.1 | 439.4 | 1.45907 | 1549.2 | 38.3
288.15 K | 0.00102 | 1100.7 | 441.4 | 1.45835 | 1541.2 | 37.91
290.65 K | 0.000817 | 1099.4 | 443.7 | 1.45764 | 1533.5 | 37.52
293.15 K | 0.000681 | 1097.7 | 446.1 | 1.45691 | 1526.3 | 37.19
295.65 K | 0.000558 | 1096.3 | 448.4 | 1.4562 | 1518.7 | 36.81
298.15 K | 0.000462 | 1094.5 | 450.5 | 1.45547 | 1511.4 | 36.51
300.65 K | 0.000388 | 1093.3 | 452.8 | 1.45477 | 1505.4 | 36.23
303.15 K | 0.000327 | 1091.5 | 455 | 1.45405 | 1498.1 | 35.94
305.65 K | 0.00028 | 1089.7 | 457.2 | 1.45333 | 1491.2 | 35.67
308.15 K | 0.000238 | 1088.1 | 459.2 | 1.45261 | 1484.6 | 35.46
310.65 K | 0.000205 | 1086.3 | 461.3 | 1.4519 | 1478.1 | 35.22
313.15 K | 0.000177 | 1084.7 | 463.3 | 1.45121 | 1472.3 | 35.02
315.65 K | 0.000156 | 1083.1 | 465.1 | 1.45047 | 1465.7 | 34.81
318.15 K | 0.000136 | 1081.4 | 467 | 1.44976 | 1459.3 | 34.63
320.65 K | 0.000119 | 1079.8 | 468.7 | 1.44903 | 1453.2 | 34.46
323.15 K | 0.000105 | 1078.3 | 470.3 | 1.44831 | 1446.5 | 34.28
325.65 K | 9.27e-05 | 1076.5 | 472 | 1.4476 | 1440.4 | 34.13
328.15 K | 8.22e-05 | 1074.9 | 473.7 | 1.4469 | 1433.6 | 33.98
